According to US20140228315A1, “BLOCKADE OF EOSINOPHIL PRODUCTION BY TOLL-LIKE RECEPTORS” (CHILDREN'S HOSPITAL MEDICAL CENTER, priority 2011, published 2014):

What follows are molecules tested on developing eosinophils (eosinophil progenitors, EoPs) from LDBM cells (assay: Murine eosinophil liquid culture (LDBM cells, IL-5): eosinophil yield after TLR ligand or cytokine exposure). Details: cytokines added with IL-5 from Day 8 for the final 6 days of culture.
Assay type: cell-based, mouse
Procedure: The femurs and tibiae of mice were crushed in a sterile mortar and pestle containing 1×PBS with 2% FBS, and cells were collected by filtration through a 70-μm strainer. Red blood cells were lysed using RBC lysis buffer (Sigma, St. Louis, Mo.), and the remaining cells were subjected to centrifugation at 1700 rpm for 30 minutes on a Histopaque 1083 (Sigma) gradient. LDBM cells were aspirated from the interface, washed twice with 1× PBS and cultured at 0.8-1×10^6 cells per ml in 6-well plates or 24-well plates containing Complete Medium composed of Iscove's Modified Dulbecco's Medium (IMDM) with Glutamax (Gibco, Carlsbad, Calif.), 10% characterized FBS (HyClone, Hudson, N.H.), 2 mM L-glutamine (Gibco), 50 μM 2-ME (Sigma), and penicillin and streptomycin (Gibco) supplemented with 100 ng/mL stem cell factor (SCF; Peprotech, Rocky Hill, N.J.) and 100 ng/mL FLT3-ligand (FLT3L; Peprotech). On day 4, the medium in each non-centrifuged plate was replaced with fresh Complete Medium containing 10 ng/mL murine IL-5 (Peprotech). Medium with IL-5 was changed every 2 days thereafter. On Day 8, some cultures were treated with LPS from E. coli serotype O55:B5 (Sigma), ultrapure LPS from S. minnesota (InvivoGen, San Diego, Calif.), monophosphoryl lipid A from S. minnesota R595LPS (InvivoGen), synthetic lipid A from E. coli (InvivoGen), Pam2CSK4 (InvivoGen), Pam3CSK4 (InvivoGen), imiquimod (InvivoGen), CL264 (InvivoGen), or poly(I:C) (InvivoGen) at indicated doses in the presence of IL-5.
After TLR ligand exposure for 18-24 hours, the medium was changed to Complete Medium with IL-5 at 10 ng/ml for the remaining culture period. For neutralization experiments, monoclonal anti-mouse IFN-γ (clone 37895; R&D Systems, Minneapolis, Minn.) or rat IgG2a isotype antibody was added at 0.3 μg/ml to media during LPS exposure and to Complete Medium with IL-5 thereafter. For some experiments, cytokines (IL-6 at 0.1 ng/ml, IL-10 at 2 ng/ml, IFN-γ at 0.5 ng/ml, TNF-α at 0.5 ng/ml, or the combination of all four) were added on Day 8 to IL-5-containing Complete Medium. Cells were cultured in the presence of these individual cytokines or the cytokine combination for the remainder of the culture period.
Whole bone marrow or LDBM cells were washed twice in 1×PBS containing 1% FBS and 1 mM EDTA at a concentration of 4×10^6 cells/mL and blocked with 0.5 μg rat anti-mouse CD16/CD32 (BD Bioscience, San Diego, Calif.) for 5 minutes at 4° C. Cells were incubated with fluorescent-labeled antibodies for 30 minutes at 4° C. and then washed twice and resuspended in flow cytometry buffer. Antibodies used include rat anti-mouse CD34-FITC (BD Bioscience), rat anti-mouse TLR4-PE (Imgenex, San Diego, Calif.), rat anti-mouse Siglec-F-PE (BD Bioscience), and rat anti-mouse CCR3-FITC (R&D Systems). All flow cytometric data were acquired using a FACS Calibur or FACS Canto flow cytometer (BD Bioscience).
FIG. 3A. A schematic of LPS exposure for eosinophil progenitors is depicted. LDBM cells were stimulated with SCF and FLT3L for 4 days and subsequently cultured with IL-5 for 4 days to initiate eosinophil differentiation. On Day 8, cultured cells were stimulated with LPS and IL-5 for 18-24 hours, after which the medium was changed, and the cells were cultured for another 6 days with IL-5 alone.

Row | Molecule | number of mature eosinophils produced (eosinophil yield)
1 | IFN-γ: cytokine added at 0.5 ng/ml to IL-5-containing medium | no significant effect
2 | TNF-α | no significant effect
3 | IL-6: cytokine added at 0.1 ng/ml to IL-5-containing medium | no significant effect
4 | IL-10: cytokine added at 2 ng/ml to IL-5-containing medium (protein, UniProt P22301 19-178, looked up) Interleukin-10: SPGQGTQSENSCTHFPGNLPNMLRDLRDAFSRVKTFFQMKDQLDNLLLKESLLEDFKGYLGCQALSEMIQFYLEEVMPQAENQDPDIKAHVNSLGENLKTLRLRLRRCHRFLPCENKSKAVEQVKNAFNKLQEKGIYKAMSEFDIFINYIEAYMTMKIRN | no significant effect

Same assay, conditions: wild-type cultures; TLR ligand exposure 18-24 hours on Day 8 in presence of IL-5, then IL-5 alone; yield at day 11-15

Row | Molecule | eosinophil yield (eosinophil production)
5 | monophosphoryl lipid A [MPLA] | dose-dependent suppression of eosinophil production
6 | CC(C)Cn1cnc2c(N)nc3ccccc3c21 [imiquimod] | significant suppression of eosinophil yield
7 | CCCCNc1nc(N)c2[nH]c(=O)n(Cc3ccc(C(=O)NCC(=O)O)cc3)c2n1 [CL264] | significant suppression of eosinophil yield
8 | Pam3CSK4 | dose-dependent reduction in eosinophil yield
9 | poly(I:C) | no effect on eosinophil production
10 | Pam2CSK4 | dose-dependent reduction in eosinophil yield
11 | synthetic monophosphoryl lipid A [sMPLA] | significant suppression of eosinophil production at higher doses
